Tests used:
LAMA-84 cells [1] = assay: PMA-induced megakaryocytic differentiation of LAMA-84 cells (morphology, CD41/CD71 flow cytometry, PI ploidy); type: cell-based, Human
Method: LAMA-84 cells were maintained in RPMI1640 containing 10% fetal calf serum, 100 U/ml penicillin, 100 μg/ml streptomycin and 2 mM glutamine. To induce differentiation, the cell culture was supplemented with 0.6-5 ng/ml PMA or 50 μM Hemin and cells were harvested and analyzed 1-5 days following treatment.
(§1) To determine the extent of maturation toward MKs 1×10^6 cultured cells (LAMA-84 or CD34+ cells) were washed and then labeled with anti-CD41-FITC (GpIIb/IIIa, BD Bioscience, USA), or anti CD71-FITC or combination of anti-CD33-FITC, anti-CD41-PE, and CD34-APC (Beckman Coulter, USA) and analyzed using FACScalibur (Becton Dickinson, USA) for the percentage of CD41^+ cells generated.
(§2) To determine the amount of ploidy, differentiated LAMA-84 cells were fixed overnight in 75% ethanol at 4° C., labeled with propidium iodide (PI, 50 μg/ml) and analyzed using FACScalibur. Fourteen day differentiated CD34+ were analyzed quantitatively under a microscope following May Grumwald/Giemsa staining for the number of nuclei per cell. Only cells with MK morphology were analyzed.
LAMA-84 cell differentiation following PMA treatment was studied via morphological staining of the cells with May Grunwald/Giemsa and via flow cytometry analysis of CD41 (MK marker) and CD71 (erythroid marker) expression. Moreover, ploidy, a marker of MK differentiation, was also determined by flow cytometry using propidium iodide (PI). A range of PMA concentrations was tested and differentiation was obtained at 0.6-10 ng/ml PMA.

Livin, Survivin, XIAP = assay: Western blot of IAP family proteins during LAMA-84 differentiation; type: cell-based, Human
Method: Whole cell lysates were prepared from 0.25-1×10^6 cells using 100 μl lysis buffer [20 mM Tris-HCl, 2 mM EDTA, 6 mM β-Mercaptoethanol, 1% Nonidet P-40 (NP-40), 0.1% SDS and protease inhibitors] at 4° C. for 20 min, with vigorous vortex mixing. Antibodies used were: monoclonal antibody against Livin (clone 88C570) (Imgenex, USA) diluted 1:3000 and Survivin 6E4 monoclonal antibody (Cell Signaling Technology, USA), followed by Envision-HRP (DAKO, Denmark) as a secondary antibody; Polyclonal antibody against XIAP (Cell Signaling Technology, USA), followed by anti-rabbit IgG HRP-linked antibody (Cell Signaling Technology, USA) as a secondary antibody. For immunoprecipitation, equal amounts of protein lysates were pre-cleared with Protein A/G-Agarose (Santa Cruz, USA) together with 1 μg of mouse IgG. Livin was immunoprecipitated from the cleared lysates (using clone 88C570) and the immune complexes were precipitated with Protein A/G-Agarose.
The expression of anti-apoptotic proteins of the […] (IAPs) during the differentiation of LAMA-84 cells towards MKs was analyzed by Western blot analysis. […] Note that in contrast to Livin, the level of Survivin decreased when cells were treated with PMA (FIG. 2E).

LAMA-84 cells [2] = assay: Release of CD41+ platelet-like particles from LAMA-84 cultures (flow cytometry); type: cell-based, Human
Method: (§3) Platelets release into the differentiated cultures was assessed via flow cytometry analysis of the supernatants. Specifically, the culture medium was collected and centrifuged at 150×g for 20 minutes to remove the nucleated cells. The supernatant was then centrifuged at 500×g for 20 minutes to pellet the platelets. Sediments containing platelets and platelet-like particles were resuspended in culture medium in 500 μl aliquots and labeled using anti-CD41-FITC. Cells were analyzed by FACScalibur for CD41 expression and log amplification of forward scatter (FCS) and side scatter (SSC).

LAMA-84 derived PLPs = assay: Aggregation of LAMA-84 derived platelet-like particles (AGGRAM aggregometer); type: cell-based, Human; conditions: PMA treated LAMA-84 culture-derived PLPs
Method: Platelets and Platelet like particles generated from platelets-poor plasma e.g. LAMA-84 differentiated cells were tested for their functionality in aggregation assays using an AGGRAM aggregometer (Helena Laboratories, Beaumont, Tex.) according to the manufacturer's instructions using various agonists: adenosine diphosphate (ADP) (11 μM), arachidonic acid (AA) (1.6 μM), Epinephrine (50 μM), Ristocetin (1.6 mM) (Diamed AG, Morat, Switzerland) or collagen (5 μg/ml) (Helena Laboratories, Beaumont, Tex.).

caspase-3 = assay: Caspase-3 activity in LAMA-84 cell extracts (CaspACE colorimetric); type: cell-based, Human; conditions: day 4, PMA treated LAMA-84 stably over-expressing construct
Method: Extracts from 1×10^6 cells were prepared by the freeze-thaw method assayed for caspase-3 activity using CaspACE™ Assay System, Colorimetric (Promega, USA), according to manufacturer's instructions.
To address the mechanism of action of Livin in MKs differentiation, LAMA-84 cells were stably transfected to over-express Livin and the expression and effects of Livin protein during MKs differentiation were tested by means of Western blot analysis, caspase-3 activity, CD41 expression evaluated by flow cytometry and platelets functionality evaluated by aggregation assay (FIGS. 4A-4D). Specifically, control LAMA-84 cells (EV, empty vector) and LAMA-84 cells stably over expressing wild-type Livin or Livin mutant lacking pro-apoptotic activity (LivinRING) were treated with PMA for 5 Days. Cells were harvested at 12, 24, 48 and 96 hours for evaluation.

Human CD34+ cells [3] = assay: Megakaryocyte differentiation of cord blood CD34+ cells with SCF and TPO (CD41, CD33, nuclei number, Western blot); type: cell-based
Method: Human CD34+ cells were cultured in Iscove's medium (IMDM) (1×10^5 cells/well) and induced to differentiate into MKs in the presence of 10 ng/ml stem cell factor (SCF) and 50 ng/ml thrombopoietin (TPO), freshly supplemented every 3 days. Cells were harvested and analyzed on day 14.
293T cells were infected to produce the virus and supernatant from 48 and 72 hours were infected into both LAMA-84 and CD34+ cells during their differentiation induction phase. In order to over-express Livin both LAMA-84 and CD34+ cells were infected following 1 day of differentiation with pWZL IRES-blasticidin vector expressing wild-type Livin (Livin β), LivinRING (Livin β RING), or empty vector (EV). For down-regulating expression of endogenous Livin, LAMA-84 were transfected by electroporation with pSUPER-Livin-2 (Livin siRNA) or pSUPER-luc (control siRNA) vectors^35 together with pWZL IRES-blasticidin 1 day following differentiation initiation. For down-regulating expression of endogenous Livin in CD34+ cells, cells were infected 1 day after differention with supernatant containing the pSUPER viruses generated by 293T cells.
as §1, §2
To investigate the effect of Livin on primary MK progenitors, human CD34+ cells isolated from cord blood samples, were transduced with Livin, LivinRING or control empty vector and grown for 14 days under MK differentiating conditions with the addition of stem cell factor (SCF) and thrombopoeitin (TPO)^41. At the terminal stages of primary MKs maturation CD34+ cell cultures were examined morphologically, analyzed for CD41 expression and polyploidy via flow cytomery, and Livin expression and cleavage via Western Blot.

Human CD34+ cells [4] = assay: CD41+ platelets released from differentiated CD34+ cultures (flow cytometry); type: cell-based; conditions: day 14, SCF and TPO
Method: as §3
The following experiments evaluated whether functional platelets were generated from the human CD34^+ cell cultures that were transduced with Livin, LivinRING or control empty vector and grown for 14 days under MK differentiating conditions with the addition of SCF and TPO. Platelets released into the media were characterized for CD41 expression and functionality by CD62P up regulation via flow cytometry.

[5] = system: platelets derived from CD34+ cultures; assay: Platelet activation by CD62P expression, platelets from CD34+ cultures; type: cell-based, Human; conditions: platelets from over-expressing CD34+ cultures
Method: Since the number of platelets generated from CD34+ cultures was low, platelets derived from these cultures were stimulated for 15 minutes at room temperature (RT) with ADP or AA and activation was assessed via flow cytometry analysis of CD62P (Pselectin)-PE (Beckman Coulter) expression (up regulation of CD62P implies activation).

For Hemin, the CD41 expression levels (LAMA-84 cells [1]; Hemin, erythroid differentiation negative control) was “did not increase CD41 expression levels” and the “Levels of IAP family proteins tested” value (Livin, Survivin, XIAP; Hemin negative control) was “did not regulate the levels”.

For `CCCCCCCCCCCCCC(=O)O[C@@H]1[C@@H](C)[C@@]2(O)[C@@H](C=C(CO)C[C@]3(O)C(=O)C(C)=C[C@@H]23)[C@@H]2C(C)(C)[C@]12OC(C)=O` [PMA, Phorbol myristate acetate], the “Ploidy (PI flow cytometry)” value (LAMA-84 cells [1]; 4 days of exposure to 5 ng/ml PMA) was “underwent polyploidization (8N, 16N and 32N)”, the “CD41 expression (percent CD41 positive cells)” value (LAMA-84 cells [1]; 4 days, 5 ng/ml PMA, untreated 8.8%±5.6%) was 81.9%±10% and the “Morphology (May Grunwald/Giemsa)” value (LAMA-84 cells [1]; LAMA-84 cells after PMA induction) was “marked increase in cell size and extensive multinuclearity”. For the same molecule, the “PMA concentration at which differentiation was obtained” value (LAMA-84 cells [1]; LAMA-84 cells, range of PMA concentrations tested) was 0.6 to 10 ng/mL, the “Level of full length XIAP” value (Livin, Survivin, XIAP; PMA differentiation, cleaved 30 kDa fragment appears) was “dose dependent significant decrease” and the Livin protein expression (Livin, Survivin, XIAP; PMA-induced differentiation, not detected in untreated cells) was “up-regulated”. The Survivin level (Livin, Survivin, XIAP; cells treated with PMA) was “decreased”, the “Percentage of CD41+ PLPs released to culture medium” value (LAMA-84 cells [2]; after incubation with PMA, untreated 6.5%±2.2%) was 24.3%±3.6% and the “Aggregation of PLPs in response to Epinephrine, collagen, ADP” value (LAMA-84 derived PLPs) was “aggregated”.

B1: wild-type Livin: Livin β (SEQ ID NO: 5 cDNA) over-expressed from pWZL IRES-blasticidin retroviral vector (protein, listed as Homo sapiens)
chain: MGPKDSAKCLHRGPQPSHWAAGDGPTQERCGPRSLGSPVLGLDTCRAWDHVDGQILGQLRPLTEEEEEEGAGATLSRGPAFPGMGSEELRLASFYDWPLTAEVPPELLAAAGFFHTGHQDKVRCFFCYGGLQSWKRGDDPWTEHAKWFPSCQFLLRSKGRDFVHSVQETHSQLLGSWDPWEEPEDAAPVAPSVPASGYPELPTPRREVQSESAQEPGARDVEAQLRRLQEERTCKVCLDRAVSIVFVPCGHLVCAECAPGLQLCPICRAPVRSRVRTFLS
B1 was tested, and the “Cleavage of Livin (Western blot)” value (Livin, Survivin, XIAP; LAMA-84 over-expressing wild-type Livin, PMA, 96 h) was “underwent cleavage only at the terminal stage of differentiation”, the “Number of CD41+ PLPs versus control (empty vector) cells” value (LAMA-84 cells [2]; day 4, PMA treated LAMA-84 over-expressing construct) was “produced more PLPs” and the Caspase-3 enzyme activity (caspase-3) was “induced caspase-3 activation”. The “Increase in percentage of CD41 stained cells compared to empty vector” value (Human CD34+ cells [3]; day 14, SCF and TPO, p=0.029) was 3.7±1 fold, the “CD33 expression of differentiated CD41+ cells” value (Human CD34+ cells [3]; day 14, n=9, control cells 7.4±6.9%) was 22.6±39.8% and the “Multi-nucleated MKs (≥4 nuclei)” value (Human CD34+ cells [3]; day 14, versus LivinRING or empty vector (p=0.01 and 0.02)) was “significant increase”. The “Livin and tLivin protein levels (Western blot)” value (Human CD34+ cells [3]; day 14, versus naive and empty vector CD34+ cultures) was “robust levels”, the “Platelets produced (CD41+) compared to empty vector control” value (Human CD34+ cells [4]) was 4.3±1 fold and the “Platelet activity in response to arachidonic acid (CD62P up regulation)” value [5] was “demonstrated activity”.

Reference: patent US11273201B2, “Compositions and methods for inducing thrombopoiesis” (Hadasit Medical Research Services and Development Ltd., priority 2013, dated 2022)
